Experimental data taken from patent publication US12560588B2, “High-efficiency screening method for RNA-targeting drugs using nanopores” (KOREA RESEARCH INSTITUTE OF BIOSCIENCE AND BIOTECHNOLOGY, priority 2020, dated 2026).

System: ARS mutant (ARS-Mut) with four base mutations (U28G, G42C, U47C and U51C)
Assay type: binding

`Nc1ncnc2nc[nH]c12` [adenine] was tested, and the “change versus free ARS-Mut” value was “not much different” and the td was 0.50 ms.
